Experimental data reported in BindingDB's records for doi:10.1124/jpet.105.087809 (Universit&Aagrove, 2005).

What was measured:
[1] = biological target: T1, Alpha-2C adrenergic receptor (Rattus norvegicus, UniProt P22086)
T1 sequence (P22086 whole entry): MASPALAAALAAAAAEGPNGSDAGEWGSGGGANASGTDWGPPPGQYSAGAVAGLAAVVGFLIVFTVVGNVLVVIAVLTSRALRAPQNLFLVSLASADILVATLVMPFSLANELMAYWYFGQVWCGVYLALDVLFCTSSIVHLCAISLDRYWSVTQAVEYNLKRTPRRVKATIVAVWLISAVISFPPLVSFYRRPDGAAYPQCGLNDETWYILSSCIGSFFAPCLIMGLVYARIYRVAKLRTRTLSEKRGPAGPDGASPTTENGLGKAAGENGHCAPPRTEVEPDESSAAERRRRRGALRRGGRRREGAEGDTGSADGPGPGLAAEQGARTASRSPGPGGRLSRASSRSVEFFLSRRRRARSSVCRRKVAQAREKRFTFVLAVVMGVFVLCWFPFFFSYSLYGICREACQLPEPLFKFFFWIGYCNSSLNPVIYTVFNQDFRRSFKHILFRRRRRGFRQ

[2] = biological target: T2, Alpha-1B adrenergic receptor (Homo sapiens, UniProt P35368)
T2 sequence (P35368 whole entry): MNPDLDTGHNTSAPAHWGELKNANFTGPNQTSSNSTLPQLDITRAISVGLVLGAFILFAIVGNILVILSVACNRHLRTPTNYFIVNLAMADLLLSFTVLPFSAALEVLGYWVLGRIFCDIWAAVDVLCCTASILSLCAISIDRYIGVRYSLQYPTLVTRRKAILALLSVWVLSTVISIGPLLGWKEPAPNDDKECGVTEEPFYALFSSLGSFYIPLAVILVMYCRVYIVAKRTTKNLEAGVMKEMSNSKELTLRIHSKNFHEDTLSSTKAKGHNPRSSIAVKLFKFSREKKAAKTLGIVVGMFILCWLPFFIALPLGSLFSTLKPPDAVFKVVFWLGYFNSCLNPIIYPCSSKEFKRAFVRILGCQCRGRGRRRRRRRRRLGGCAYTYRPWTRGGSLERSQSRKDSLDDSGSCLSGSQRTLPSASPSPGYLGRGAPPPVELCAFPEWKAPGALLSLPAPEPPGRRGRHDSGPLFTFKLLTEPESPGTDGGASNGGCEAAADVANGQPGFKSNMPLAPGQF

[3] = biological target: D(2) dopamine receptor (Rattus norvegicus, UniProt P61169)
[4] = biological target: T3, Alpha-1A adrenergic receptor (Homo sapiens, UniProt P35348)
T3 sequence (P35348 whole entry): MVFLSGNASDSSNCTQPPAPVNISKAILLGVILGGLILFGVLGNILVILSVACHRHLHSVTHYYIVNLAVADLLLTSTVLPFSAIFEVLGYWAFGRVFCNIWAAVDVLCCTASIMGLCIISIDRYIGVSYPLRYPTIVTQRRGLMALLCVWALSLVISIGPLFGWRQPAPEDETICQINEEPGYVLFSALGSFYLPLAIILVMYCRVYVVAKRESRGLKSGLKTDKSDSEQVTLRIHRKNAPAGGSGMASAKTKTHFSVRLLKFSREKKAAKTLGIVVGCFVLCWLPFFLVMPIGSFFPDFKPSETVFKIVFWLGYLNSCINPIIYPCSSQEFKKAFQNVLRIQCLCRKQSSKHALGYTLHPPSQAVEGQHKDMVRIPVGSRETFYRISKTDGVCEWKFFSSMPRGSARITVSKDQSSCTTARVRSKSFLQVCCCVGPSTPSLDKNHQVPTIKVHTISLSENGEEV

[5] = biological target: T4, Alpha-1D adrenergic receptor (Homo sapiens, UniProt P25100)
T4 sequence (P25100 whole entry): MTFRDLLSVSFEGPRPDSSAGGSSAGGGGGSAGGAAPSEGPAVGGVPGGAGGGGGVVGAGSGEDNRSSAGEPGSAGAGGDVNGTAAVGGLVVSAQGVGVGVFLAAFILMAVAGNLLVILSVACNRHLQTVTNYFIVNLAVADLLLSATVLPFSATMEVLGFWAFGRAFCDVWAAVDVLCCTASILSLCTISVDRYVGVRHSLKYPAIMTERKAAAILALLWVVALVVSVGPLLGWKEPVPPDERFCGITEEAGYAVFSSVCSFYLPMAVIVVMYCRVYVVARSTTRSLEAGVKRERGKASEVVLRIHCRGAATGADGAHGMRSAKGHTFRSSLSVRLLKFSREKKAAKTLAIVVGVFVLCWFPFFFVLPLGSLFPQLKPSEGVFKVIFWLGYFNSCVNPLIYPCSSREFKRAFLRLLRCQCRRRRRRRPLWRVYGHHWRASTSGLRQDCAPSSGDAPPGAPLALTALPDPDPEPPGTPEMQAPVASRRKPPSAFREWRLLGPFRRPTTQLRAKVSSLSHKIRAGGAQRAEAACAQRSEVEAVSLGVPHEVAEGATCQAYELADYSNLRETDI

[6] = biological target: T5, 5-hydroxytryptamine receptor 1A (Homo sapiens, UniProt P08908)
T5 sequence (P08908 whole entry): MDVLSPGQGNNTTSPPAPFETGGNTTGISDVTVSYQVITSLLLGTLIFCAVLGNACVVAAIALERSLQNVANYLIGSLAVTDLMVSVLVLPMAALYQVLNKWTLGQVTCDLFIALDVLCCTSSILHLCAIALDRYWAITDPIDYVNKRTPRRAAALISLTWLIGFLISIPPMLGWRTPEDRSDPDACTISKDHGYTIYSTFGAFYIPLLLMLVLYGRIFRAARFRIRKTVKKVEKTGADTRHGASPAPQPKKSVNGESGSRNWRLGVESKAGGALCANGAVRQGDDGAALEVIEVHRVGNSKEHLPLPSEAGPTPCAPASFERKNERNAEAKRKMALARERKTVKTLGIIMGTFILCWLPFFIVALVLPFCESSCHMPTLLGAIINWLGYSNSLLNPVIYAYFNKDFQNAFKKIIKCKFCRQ

Sequence of D(2) dopamine receptor (P61169 whole entry): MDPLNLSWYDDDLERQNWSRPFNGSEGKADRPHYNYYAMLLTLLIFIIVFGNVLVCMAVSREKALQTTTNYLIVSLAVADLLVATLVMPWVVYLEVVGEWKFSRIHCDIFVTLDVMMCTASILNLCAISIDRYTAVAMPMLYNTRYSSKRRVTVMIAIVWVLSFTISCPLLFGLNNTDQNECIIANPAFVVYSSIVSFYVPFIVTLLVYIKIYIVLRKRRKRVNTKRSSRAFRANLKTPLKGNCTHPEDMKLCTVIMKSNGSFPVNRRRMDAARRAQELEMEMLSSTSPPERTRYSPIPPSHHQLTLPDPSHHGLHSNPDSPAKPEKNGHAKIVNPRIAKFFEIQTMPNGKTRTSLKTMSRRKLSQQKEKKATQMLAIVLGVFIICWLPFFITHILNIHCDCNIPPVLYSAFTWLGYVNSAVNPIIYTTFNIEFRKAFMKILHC

SMILES	Ki [1] [nM]	Ki [2] [nM]	Ki [3] [nM]	Ki [4] [nM]	Ki [5] [nM]	Ki [6] [nM]
COc1ccccc1N1CCN(CCN(C(=O)C2CCCCC2)c2ccccn2)CC1	1260	661	347	–	–	–
O=C(CCCN1CCC2(CC1)C(=O)NCN2c1ccccc1)c1ccc(F)cc1 [8-[4-(4-fluorophenyl)-4-oxidanylidene-butyl]-1-phenyl-1,3,8-triazaspiro[4.5]decan-4-one]	–	–	–	20.4	8.32	–
COc1ccccc1N1CCN(CCN(C(=O)C2CCCCC2)c2ccccc2[N+](=O)[O-])CC1 [N-[2-[4-(2-methoxyphenyl)-1-piperazinyl]-ethyl]-N-(2-nitrophenyl)cyclohexanecarboxamide]	> 10000	–	871	–	–	–
COc1ccccc1N1CCN(CCN(C(=O)C2CCCCC2)c2ccccc2OC)CC1 [Rec 27/0074]	> 10000	1.02	316	5.13	4.17	0.89
COc1ccc(Br)c(N2CCN(CCN(C(=O)C3CCCCC3)c3ccccc3OC(F)(F)F)CC2)c1 [Rec 27/0224]	> 10000	646	4790	224	724	1.05
